From patent US8012971B2, “Therapeutic agent for chronic obstructive pulmonary disease” (Dainippon Sumitomo Pharma Co., Ltd., priority 2005, dated 2011)

Columns and labels:
[1] = system: Guinea Pig Chronic Obstructive Pulmonary Disease (COPD) Model; test: Airway resistance (sRaw) in guinea pig COPD model (cigarette smoke exposure); format: in vivo; conditions: for Specific airway resistance (sRaw) % increase from pre value: 1 week of cigarette smoke exposure, mean ± SEM of 8 animals
Protocol: (§1) An evaluation was carried out as follows according to a report of Kosuke MORIZUMI, Junichi FUCHIGAMI et al., 2002, The 75th Annual Meeting of the Japanese Pharmacological Society (2002) Abstract No. P-259, “Study of a chronic obstructive pulmonary disease-Effects of theophylline on respiratory function and lung function of guinea pigs in an exposure of cigarette smoke.”
(§2) Male Hartley strain guinea pigs (purchased from Japan SLC, Inc.) were taken in a cigarette exposure holder (RMH-TUBES, manufactured by Muenster Ltd.) to secure them to an exposure chamber (Flow-past type nose-only inhalation chamber, manufactured by Muenster Ltd.), and allowed to inhale cigarette smoke (Hi-Lite, manufactured by Japan Tobacco Inc.) for 60 minutes per day for 5 days in a week, totally 4 weeks using a smoking exposure equipment (Hamburg II, manufactured by Borgwaldt Technik), while the exposure was carried out for 4 days in the 4th week. • (2) Drug Administrations
(§3) Each 0.5% MC suspension of a test drug was orally administered daily in 5 ml/weight (kg) once a day for 25 days from the first day of the exposure. To a sham-exposure group and a control group was orally administered a 0.5% MC suspension in a similar manner. Any oral administrations were carried out 0.5 to 1 hours before exposures on a cigarette-smoke-exposure day or after measurements when measuring respiratory functions. A drug was not administered on the day for measurement of respiratory functions after finishing the 4th week of the exposure. • (3) Measurements of Airway Resistance
Specific airway resistances (sRaw) in guinea pigs were measured during awakening by double-flow plethysmography using general respiratory function analysis system (PULMOS-I, manufactured by M•I•P•S Corp.). Measurements were carried out before the exposure and on the day after finishing the 1st, 2nd, 3rd and 4th weeks of the exposure. Each 100 breathings of respiratory functions were individually measured, and the average values were obtained as measured values. A rate of change of airway resistances was calculated by the following equation. Rate of change of each measured week (%)=100×(a measured value on each measured date−a measured value before starting exposures of cigarette smoke)/a measured value before starting exposures of cigarette smoke

[2] = system: Guinea Pig Chronic Obstructive Pulmonary Disease (COPD) Model; test: Histological investigations of lung in guinea pig COPD model; format: in vivo; conditions: 8 animals
Protocol: as §1, §2, §3
After collection of BALF, trachea and lung were isolated. The ligation site of the left lung was opened, injected neutral formalin buffer into trachea, bronchi and lung at the pressure of 20 cm H2O via cannula fixed on the side of the lung, and the lung tissue was extended to be fixed. According to a conventional method, tissue section samples were produced using posterior lobe of the left lung and hematoxylin-eosin (HE) stain was carried out. Any other lung tissues were stored in neutral formalin buffers. Drug efficacies of the produced tissue samples were evaluated by scoring tissue changes under the microscope. The criteria of scores were shown as follows: −: none, ±: minimal, +: mild, ++: moderate, +++: severe. Each quantification was calculated as 0, 1, 2, 3, 4.

Compound: CNC(=O)NCCn1c(-c2ccc(N3CCOCC3)cc2)csc1=Nc1cccc(F)c1 [SMP-028, N-{2-[2-[(3-fluorophenyl)imino]-4-(4-morpholinophenyl)-thiazol-3(2H)-yl]ethyl}-N′-methylurea]
- Specific airway resistance (sRaw) % increase from pre value ([1]; 10 mg/kg/day oral): 25.54 ± 10.91%
- Specific airway resistance (sRaw) % increase from pre value ([1]; 30 mg/kg/day oral): 15.02 ± 4.07%
- increases of airway resistance by cigarette smoking stimulation ([1]; groups of 10 mg/kg and 30 mg/kg, result in words): tended to be suppressed
- Number of animals with grade + (mild): A. Hyperplasia, epithelial cell, bronchus ([2]; 10 mg/kg/day for 25 days): 0
- Number of animals with grade + (mild): B. Cellular exudation, neutrophil/eosinophil, lumen, bronchiole ([2]; 10 mg/kg/day for 25 days): 0
- Number of animals with grade + (mild): C. Thickening, alveolar wall ([2]; 10 mg/kg/day for 25 days): 2
- Number of animals with grade + (mild): D. Accumulation, foamy/macrophage-like cell, alveolus ([2]; 10 mg/kg/day for 25 days): 2
- Number of animals with grade + (mild): E. Cellular infiltration, neutrophil, alveolus ([2]; 10 mg/kg/day for 25 days): 0
- Number of animals with grade ++ (moderate): A. Hyperplasia, epithelial cell, bronchus ([2]; 10 mg/kg/day for 25 days): 0
- Number of animals with grade ++ (moderate): B. Cellular exudation, neutrophil/eosinophil, lumen, bronchiole ([2]; 10 mg/kg/day for 25 days): 0
- Number of animals with grade ++ (moderate): C. Thickening, alveolar wall ([2]; 10 mg/kg/day for 25 days): 0
- Number of animals with grade ++ (moderate): D. Accumulation, foamy/macrophage-like cell, alveolus ([2]; 10 mg/kg/day for 25 days): 0
- Number of animals with grade ++ (moderate): E. Cellular infiltration, neutrophil, alveolus ([2]; 10 mg/kg/day for 25 days): 0
- Number of animals with grade +++ (severe): A. Hyperplasia, epithelial cell, bronchus ([2]; 10 mg/kg/day for 25 days): 0
- Number of animals with grade +++ (severe): B. Cellular exudation, neutrophil/eosinophil, lumen, bronchiole ([2]; 10 mg/kg/day for 25 days): 0
- Number of animals with grade +++ (severe): C. Thickening, alveolar wall ([2]; 10 mg/kg/day for 25 days): 0
- Number of animals with grade +++ (severe): D. Accumulation, foamy/macrophage-like cell, alveolus ([2]; 10 mg/kg/day for 25 days): 0
- Number of animals with grade +++ (severe): E. Cellular infiltration, neutrophil, alveolus ([2]; 10 mg/kg/day for 25 days): 0
- Number of animals with grade ± (minimal): A. Hyperplasia, epithelial cell, bronchus ([2]; 10 mg/kg/day for 25 days): 1
- Number of animals with grade ± (minimal): B. Cellular exudation, neutrophil/eosinophil, lumen, bronchiole ([2]; 10 mg/kg/day for 25 days): 1
- Number of animals with grade ± (minimal): C. Thickening, alveolar wall ([2]; 10 mg/kg/day for 25 days): 2
- Number of animals with grade ± (minimal): D. Accumulation, foamy/macrophage-like cell, alveolus ([2]; 10 mg/kg/day for 25 days): 3
- Number of animals with grade ± (minimal): E. Cellular infiltration, neutrophil, alveolus ([2]; 10 mg/kg/day for 25 days): 0
- Number of animals with grade − (none): A. Hyperplasia, epithelial cell, bronchus ([2]; 10 mg/kg/day for 25 days): 7
- Number of animals with grade − (none): B. Cellular exudation, neutrophil/eosinophil, lumen, bronchiole ([2]; 10 mg/kg/day for 25 days): 7
- Number of animals with grade − (none): C. Thickening, alveolar wall ([2]; 10 mg/kg/day for 25 days): 4
- Number of animals with grade − (none): D. Accumulation, foamy/macrophage-like cell, alveolus ([2]; 10 mg/kg/day for 25 days): 3
- Number of animals with grade − (none): E. Cellular infiltration, neutrophil, alveolus ([2]; 10 mg/kg/day for 25 days): 8
- Number of animals with grade + (mild): A. Hyperplasia, epithelial cell, bronchus ([2]; 30 mg/kg/day for 25 days): 0
- Number of animals with grade + (mild): B. Cellular exudation, neutrophil/eosinophil, lumen, bronchiole ([2]; 30 mg/kg/day for 25 days): 0
- Number of animals with grade + (mild): C. Thickening, alveolar wall ([2]; 30 mg/kg/day for 25 days): 1
- Number of animals with grade + (mild): D. Accumulation, foamy/macrophage-like cell, alveolus ([2]; 30 mg/kg/day for 25 days): 2
- Number of animals with grade + (mild): E. Cellular infiltration, neutrophil, alveolus ([2]; 30 mg/kg/day for 25 days): 0
